Earlier results, collected in patent publication US7592342B2, “Quinoxaline derivatives as PI3 kinase inhibitors” (SmithKline Beecham Corporation, priority 2007, dated 2009).

Target: CK2 protein kinase (Homo sapiens, UniProt P68400)
Details: LY294002, literature

Sequence of CK2 protein kinase (P68400 whole entry): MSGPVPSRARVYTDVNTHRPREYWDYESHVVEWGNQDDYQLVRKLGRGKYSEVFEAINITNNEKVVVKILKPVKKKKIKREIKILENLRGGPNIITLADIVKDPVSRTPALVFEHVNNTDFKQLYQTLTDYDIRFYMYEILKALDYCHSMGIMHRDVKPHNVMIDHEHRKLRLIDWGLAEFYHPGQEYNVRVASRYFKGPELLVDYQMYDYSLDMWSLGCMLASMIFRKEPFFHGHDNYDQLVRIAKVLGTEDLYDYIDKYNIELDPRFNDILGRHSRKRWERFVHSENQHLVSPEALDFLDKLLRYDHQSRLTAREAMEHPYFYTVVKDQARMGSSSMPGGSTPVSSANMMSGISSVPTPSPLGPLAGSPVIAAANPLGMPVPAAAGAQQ

O=c1cc(N2CCOCC2)oc2c(-c3ccccc3)cccc12 [LY294002]
IC50: 5 to 10 µM
